Results taken from ChEMBL document CHEMBL1154679, “Synthesis and biological evaluation of coumarin-based inhibitors of NAD(P)H: quinone oxidoreductase-1 (NQO1)” (J Med Chem, 2009).

Tests used:
MIA PaCa-2 [1] = experiment: Cytotoxicity against human MIAPaCa2 cells assessed as reduction in cell number after 24 hrs by MTT assay; type: functional, cell-based; conditions: MIA PaCa-2, 24 h
HCT-116 [2] = experiment: Cytotoxicity against human HCT116 cells assessed as reduction in cell number after 96 hrs by MTT assay; type: functional, cell-based; conditions: HCT-116, 96 h
HCT-116 [3] = experiment: Cytotoxicity against human HCT116 cells assessed as reduction in cell number after 24 hrs by MTT assay; type: functional, cell-based; conditions: HCT-116, 24 h
MIA PaCa-2 [4] = experiment: Cytotoxicity against human MIAPaCa2 cells assessed as reduction in cell number after 96 hrs by MTT assay; type: functional, cell-based; conditions: MIA PaCa-2, 96 h
[5] = molecular target: T1, NAD(P)H dehydrogenase [quinone] 1 (Homo sapiens, UniProt P15559)
T1 sequence (P15559 whole entry): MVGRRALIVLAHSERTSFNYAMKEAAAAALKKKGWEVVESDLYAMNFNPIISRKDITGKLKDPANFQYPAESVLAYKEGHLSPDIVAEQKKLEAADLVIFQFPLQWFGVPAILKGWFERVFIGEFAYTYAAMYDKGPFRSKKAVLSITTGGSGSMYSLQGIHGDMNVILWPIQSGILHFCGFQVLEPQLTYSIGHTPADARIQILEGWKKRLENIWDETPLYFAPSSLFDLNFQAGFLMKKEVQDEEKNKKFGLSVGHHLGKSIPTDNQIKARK
Description: Inhibition of human recombinant NQO1 in presence of BSA

[6] = molecular target: T1, NAD(P)H dehydrogenase [quinone] 1; remark: listed apart in the source
Description: Inhibition of human recombinant NQO1

IC50 [5]	IC50 [6]	SMILES	IC50 (MIA PaCa-2 [1])	IC50 (HCT-116 [2])	IC50 (HCT-116 [3])	IC50 (MIA PaCa-2 [4])
–	–	Cc1cc2oc(=O)c(Cc3cccc4ccccc34)c(O)c2cc1C	> 400 µM	56 µM	160 µM	188 µM
3.3 µM	0.011 µM	COc1ccc2oc(=O)c(Cc3c(O)c4cc(OC)ccc4oc3=O)c(O)c2c1	300 µM	48 µM	196 µM	405 µM
–	–	Cc1ccc(Cc2c(O)c3cc(C)c(C)cc3oc2=O)cc1C	> 400 µM	176 µM	> 400 µM	407 µM
6.25 µM	0.009 µM	O=c1oc2ccc(Cl)cc2c(O)c1Cc1c(O)c2cc(Cl)ccc2oc1=O	–	–	–	–
5.5 µM	0.014 µM	Cc1ccc2oc(=O)c(Cc3c(O)c4cc(C)ccc4oc3=O)c(O)c2c1	–	–	–	–
–	–	Cc1cc2oc(=O)c(Cc3ccc4ccccc4c3)c(O)c2cc1C	390 µM	180 µM	208 µM	162 µM
–	–	COc1cc2oc(=O)c(Cc3c(O)c4cc(OC)c(OC)cc4oc3=O)c(O)c2cc1OC	> 400 µM	> 400 µM	> 400 µM	> 400 µM
–	–	Cc1cc2oc(=O)c(Cc3ccccc3)c(O)c2cc1C	> 400 µM	178 µM	> 400 µM	267 µM
–	–	Cc1cc2oc(=O)c(Cc3c(O)c4cc(C)c(C)cc4oc3=O)c(O)c2cc1C	213 µM	35 µM	201 µM	106 µM
–	–	COc1cccc2oc(=O)c(Cc3c(O)c4c(OC)cccc4oc3=O)c(O)c12	390 µM	80 µM	> 400 µM	350 µM
–	–	COc1ccc2c(O)c(Cc3c(O)c4ccc(OC)cc4oc3=O)c(=O)oc2c1	448 µM	187 µM	> 400 µM	303 µM
–	–	Cc1ccc2c(O)c(Cc3c(O)c4ccc(C)c(C)c4oc3=O)c(=O)oc2c1C	359 µM	35 µM	178 µM	119 µM
–	–	O=c1oc2ccccc2c(O)c1Cc1c(O)c2ccccc2oc1=O [DICUMAROL]	90 µM	19 µM	103 µM	52 µM

SMILES	IC50 [5]	IC50 [6]	IC50 (MIA PaCa-2 [1])	IC50 (HCT-116 [2])	IC50 (HCT-116 [3])	IC50 (MIA PaCa-2 [4])
O=c1oc2ccccc2c(O)c1Cc1ccccc1	3.2 µM	0.144 µM	–	–	–	–
CCCC(c1c(O)c2ccccc2oc1=O)c1c(O)c2ccccc2oc1=O	5.32 µM	0.588 µM	–	–	–	–
